Laboratory results from patent US20210347727A1 (BLADE THERAPEUTICS, INC., priority 2017, published 2021).

Legend:
Human Calpain 1/NS1 = molecular target: T1, Human Calpain 1/NS1 (Homo sapiens, UniProt P07384); test: Biochemical inhibition of calpain 1, continuous fluorescence (FRET substrate) assay; conditions: mean; read-out: Human Calpain 1/NS1 IC50 (nM)_MEAN
T1 sequence (P07384 1-714): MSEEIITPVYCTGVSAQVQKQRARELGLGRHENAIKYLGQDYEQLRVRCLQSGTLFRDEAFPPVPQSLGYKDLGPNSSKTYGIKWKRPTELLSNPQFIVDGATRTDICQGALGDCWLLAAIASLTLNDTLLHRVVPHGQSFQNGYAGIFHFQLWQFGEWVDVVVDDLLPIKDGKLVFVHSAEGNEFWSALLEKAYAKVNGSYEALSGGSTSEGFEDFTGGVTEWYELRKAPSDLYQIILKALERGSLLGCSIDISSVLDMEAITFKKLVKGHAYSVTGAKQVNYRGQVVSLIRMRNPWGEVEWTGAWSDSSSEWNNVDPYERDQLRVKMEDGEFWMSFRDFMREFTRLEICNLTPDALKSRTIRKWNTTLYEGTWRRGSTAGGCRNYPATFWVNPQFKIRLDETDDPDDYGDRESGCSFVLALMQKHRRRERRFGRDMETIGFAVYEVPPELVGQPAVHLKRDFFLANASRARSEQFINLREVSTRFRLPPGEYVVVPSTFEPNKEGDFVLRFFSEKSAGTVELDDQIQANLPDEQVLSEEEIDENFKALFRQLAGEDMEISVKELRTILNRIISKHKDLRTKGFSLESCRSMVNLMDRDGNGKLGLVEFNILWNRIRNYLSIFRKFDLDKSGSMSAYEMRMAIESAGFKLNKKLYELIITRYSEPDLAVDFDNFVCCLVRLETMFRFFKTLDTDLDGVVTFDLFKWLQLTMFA
T1 sequence (P04632 1-268 partner): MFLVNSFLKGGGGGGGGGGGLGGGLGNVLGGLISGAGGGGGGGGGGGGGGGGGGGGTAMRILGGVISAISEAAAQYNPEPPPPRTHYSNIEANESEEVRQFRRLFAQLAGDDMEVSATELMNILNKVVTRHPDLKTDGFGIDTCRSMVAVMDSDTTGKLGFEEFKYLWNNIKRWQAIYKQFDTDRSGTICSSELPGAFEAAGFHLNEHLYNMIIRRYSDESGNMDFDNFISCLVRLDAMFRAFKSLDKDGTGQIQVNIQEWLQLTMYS
Procedure: (§1) Calpain 1, 2, and 9 activity and inhibition thereof are assessed by means of a continuous fluorescence assay. The SensoLyte 520 Calpain substrate (Anaspec Inc) is optimized for detecting calpain activity. This substrate contains a novel internally quenched 5-FAM/QXL™ 520 FRET pair. Calpains 1, 2, and 9 cleave the FRET substrate into two separate fragments resulting in an increase of 5-FAM fluorescence that is proportional to calpain activity.
(§2) Assays are typically setup in black 384-well plates using automated liquid handling as follows. Calpain assay base buffer typically contains 50 mM Tris, pH 7.5, 100 mM NaCl and 1 mM DTT. Inhibitors are serially diluted in DMSO and used to setup 2× mixtures with calpains in the aforementioned buffer. After incubation at ambient temperature (25 C), the reaction is initiated by adding a 2× mix of the fluorescent peptide substrate and CaCl2 (required for in-situ calpain activation) in the same buffer. Reaction progress curve data are typically collected for 10 min using excitation/emission wavelengths of 490 nm/520 nm on SpectraMax i3x or the FLIPR-Tetra plate readers (Molecular Devices Inc). Reaction rates were calculated from progress curve slopes typically over 1-5 min. Dose response curves (rate vs. log inhibitor concentration) were typically fit to a 4-parameter logistic function to extract IC50 values.

Human Calpain 2/NS1 = molecular target: T2, Human Calpain 2/NS1 (Homo sapiens, UniProt P17655); test: Biochemical inhibition of calpain 2, continuous fluorescence (FRET substrate) assay; conditions: mean; read-out: Human Calpain 2/NS1 1C50 [sic] (nM)_MEAN
T2 sequence (P17655 1-700): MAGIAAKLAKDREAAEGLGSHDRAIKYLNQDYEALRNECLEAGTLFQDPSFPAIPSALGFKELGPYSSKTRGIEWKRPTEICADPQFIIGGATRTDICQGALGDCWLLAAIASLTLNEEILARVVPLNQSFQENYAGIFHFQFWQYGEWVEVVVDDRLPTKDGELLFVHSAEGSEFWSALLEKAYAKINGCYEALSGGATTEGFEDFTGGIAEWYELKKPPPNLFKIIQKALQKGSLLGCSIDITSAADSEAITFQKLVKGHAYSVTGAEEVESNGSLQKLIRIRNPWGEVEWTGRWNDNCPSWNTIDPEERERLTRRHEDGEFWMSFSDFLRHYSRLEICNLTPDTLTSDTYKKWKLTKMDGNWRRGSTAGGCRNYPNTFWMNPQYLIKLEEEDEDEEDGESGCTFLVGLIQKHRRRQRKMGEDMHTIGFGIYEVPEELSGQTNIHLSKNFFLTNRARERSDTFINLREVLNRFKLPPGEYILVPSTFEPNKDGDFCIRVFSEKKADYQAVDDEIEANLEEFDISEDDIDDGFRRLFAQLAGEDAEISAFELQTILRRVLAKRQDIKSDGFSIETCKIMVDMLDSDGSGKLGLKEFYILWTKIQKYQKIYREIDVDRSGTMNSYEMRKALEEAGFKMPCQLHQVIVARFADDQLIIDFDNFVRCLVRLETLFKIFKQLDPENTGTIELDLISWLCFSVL
T2 sequence (P04632 1-268 partner): T1 sequence (P04632 1-268 partner)
Procedure: as §1, §2

Human Calpain 9/NS1 = molecular target: T3, Human Calpain 9/NS1 (Homo sapiens, UniProt O14815); test: Biochemical inhibition of calpain 9, continuous fluorescence (FRET substrate) assay; conditions: mean; read-out: Human Calpain 9/NS1 IC50 (nM)_MEAN
T3 sequence (O14815 1-690): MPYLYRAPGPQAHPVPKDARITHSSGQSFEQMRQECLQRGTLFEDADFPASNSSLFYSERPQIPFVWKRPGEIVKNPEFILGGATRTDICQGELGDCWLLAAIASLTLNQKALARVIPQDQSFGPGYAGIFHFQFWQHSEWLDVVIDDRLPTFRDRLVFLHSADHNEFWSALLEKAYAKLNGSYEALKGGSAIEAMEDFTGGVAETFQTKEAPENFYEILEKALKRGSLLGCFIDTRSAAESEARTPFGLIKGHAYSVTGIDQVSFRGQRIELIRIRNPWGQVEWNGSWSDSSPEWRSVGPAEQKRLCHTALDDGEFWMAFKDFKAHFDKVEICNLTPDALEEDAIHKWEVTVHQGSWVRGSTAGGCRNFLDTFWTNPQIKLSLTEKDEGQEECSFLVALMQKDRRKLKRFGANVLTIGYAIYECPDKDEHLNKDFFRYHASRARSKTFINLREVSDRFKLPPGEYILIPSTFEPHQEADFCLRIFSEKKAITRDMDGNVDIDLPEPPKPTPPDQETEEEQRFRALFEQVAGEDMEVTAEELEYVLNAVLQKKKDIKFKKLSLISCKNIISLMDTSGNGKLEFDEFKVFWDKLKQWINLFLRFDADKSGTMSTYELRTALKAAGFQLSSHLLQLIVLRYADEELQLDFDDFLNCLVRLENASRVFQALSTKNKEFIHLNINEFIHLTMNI
T3 sequence (P04632 1-268 partner): T1 sequence (P04632 1-268 partner)
Procedure: as §1, §2

[1] = tested on: calpain activity in SH-SY5Y cells; test: SH-SY5Y cellular calpain activity, Suc-LLVY-AMC fluorescence assay; assay type: cell-based; conditions: Suc-LLVY-AMC substrate
Procedure: Calpain activity in SH-SY5Y cells and inhibition thereof were assessed by means of a homogeneous, fluorescence assay that uses the cell-permeable and pro-fluorescent calpain substrate Suc-LLVY-AMC (Sigma-Aldrich Inc). Upon intracellular calpain cleavage of Suc-LLVY-AMC, fluorescent amino-methyl-coumarin (AMC) is released into the media resulting in a continuous increase in fluorescence signal that is proportional to intra-cellular calpain activity.
Assays were typically setup by seeding SH-SY5Y cells in black 384-well plates at 40 k/per well in RPMI-1640 containing 1% serum followed by 37 C overnight incubation. Next morning, cells were pre-incubated for 30 min with serially diluted compounds followed by addition of 100 uM of Suc-LLVY-AMC substrate. The continuous increase in AMC fluorescence is monitored using a FLIPR, Tetra plate reader (Molecular Devices Inc) and slopes measured to report calpain activity. Dose response curves (slopes vs. log inhibitor concentration) were typically fit to a 4-parameter logistic function to extract IC50 values.

[2] = tested on: calpain activity in SH-SY5Y cells (Spectrin); test: SH-SY5Y Spectrin cellular calpain inhibition; assay type: cell-based

Compound	IC50 (Human Calpain 1/NS1)	IC50 (Human Calpain 2/NS1)	IC50 (Human Calpain 9/NS1)	IC50 [1]	IC50 [2]
O=C(NC1CC1)C(=O)[C@H](Cc1ccccc1)NC(=O)c1c(Cl)cccc1Cl [Compound 2, (S)-2,6-DICHLORO-N-(4-(CYCLOPROPYLAMINO)-3,4-DIOXO-1-PHENYLBUTAN-2-YL)BENZAMIDE]	< 3000 nM	< 3000 nM	< 3000 nM	< 10 µM	
NC(=O)C(=O)[C@H](Cc1ccccc1)NC(=O)c1ccc(F)cc1 [Compound 4, (S)—N-(4-AMINO-3,4-DIOXO-1-PHENYLBUTAN-2-YL)-4-FLUOROBENZAMIDE]	> 10000 nM	3000 to 10000 nM	3000 to 10000 nM	10 to 25 µM	
NC(=O)C(=O)C(Cc1ccccc1)NC(=O)C1c2ccccc2Oc2ccccc21 (stereo not drawn) [Compound 5, N-(4-AMINO-3,4-DIOXO-1-PHENYLBUTAN-2-YL)-9H-XANTHENE-9-CARBOXAMIDE]	< 3000 nM	< 3000 nM	< 3000 nM		> 25 µM
NC(=O)C(=O)C(Cc1ccccc1)NC(=O)N1c2ccccc2Oc2ccccc21 (stereo not drawn) [Compound 6, N-(4-AMINO-3,4-DIOXO-1-PHENYLBUTAN-2-YL)-10H-PHENOXAZINE-10-CARBOXAMIDE]	< 3000 nM	< 3000 nM	> 10000 nM	> 25 µM	
NC(=O)C(=O)C(Cc1ccccc1)NC(=O)n1c2ccccc2c2ccccc21 (stereo not drawn) [Compound 8, N-(4-AMINO-3,4-DIOXO-1-PHENYLBUTAN-2-YL)-9H-CARBAZOLE-9-CARBOXAMIDE]	3000 to 10000 nM	> 10000 nM	> 10000 nM	> 25 µM	
NC(=O)C(=O)C(Cc1ccccc1)NC(=O)C1c2ccccc2-c2ccccc21 (stereo not drawn) [Compound 10, N-(4-AMINO-3,4-DIOXO-1-PHENYLBUTAN-2-YL)-9H-FLUORENE-9-CARBOXAMIDE]	> 10000 nM	3000 to 10000 nM	> 10000 nM	10 to 25 µM	
COc1ccc(Cl)cc1C(=O)N[C@@H](Cc1ccccc1)C(=O)C(N)=O [Compound 17, (S)—N-(4-AMINO-3,4-DIOXO-1-PHENYLBUTAN-2-YL)-5-CHLORO-2-METHOXYBENZAMIDE]	< 3000 nM	< 3000 nM	< 3000 nM	< 10 µM	
COc1cccc(OC)c1C(=O)N[C@@H](Cc1ccccc1)C(=O)C(N)=O [Compound 18, (S)—N-(4-AMINO-3,4-DIOXO-1-PHENYLBUTAN-2-YL)-2,6-DIMETHOXYBENZAMIDE]	> 10000 nM	> 10000 nM	3000 to 10000 nM	> 25 µM	
NC(=O)C(=O)[C@H](Cc1ccccc1)NC(=O)c1c(Cl)cccc1C(F)(F)F [Compound 19, (S)—N-(4-AMINO-3,4-DIOXO-1-PHENYLBUTAN-2-YL)-2-CHLORO-6-(TRIFLUOROMETHYL)BENZAMIDE]	< 3000 nM	< 3000 nM	< 3000 nM	> 25 µM	
NC(=O)C(=O)[C@H](Cc1ccccc1)NC(=O)c1c(C(F)(F)F)cccc1C(F)(F)F [Compound 20, (S)—N-(4-AMINO-3,4-DIOXO-1-PHENYLBUTAN-2-YL)-2,6-BIS(TRIFLUOROMETHYL)BENZAMIDE]	< 3000 nM	3000 to 10000 nM	< 3000 nM	10 to 25 µM	
NC(=O)C(=O)[C@H](Cc1ccccc1)NC(=O)c1c(Cl)cccc1-c1ccccc1 [Compound 21, (S)—N-(4-AMINO-3,4-DIOXO-1-PHENYLBUTAN-2-YL)-3-CHLORO-[1,1′-BIPHENYL]-2-CARBOXAMIDE]	< 3000 nM	< 3000 nM	< 3000 nM	> 25 µM	
NC(=O)C(=O)[C@H](Cc1ccccc1)NC(=O)c1ccc(-c2ccccc2)cc1 [Compound 23, (S)—N-(4-AMINO-3,4-DIOXO-1-PHENYLBUTAN-2-YL)-[1,1′-BIPHENYL]-4-CARBOXAMIDE]	< 3000 nM	> 10000 nM	> 10000 nM	< 10 µM	
NC(=O)C(=O)C(Cc1ccccc1)NC(=O)c1cccc(F)c1 (stereo not drawn) [Compound 25, N-(4-AMINO-3,4-DIOXO-1-PHENYLBUTAN-2-YL)-3-FLUOROBENZAMIDE]	< 3000 nM	< 3000 nM	< 3000 nM	< 10 µM	
Cc1cccc(C(=O)NC(Cc2ccccc2)C(=O)C(N)=O)c1C (stereo not drawn) [Compound 26, N-(4-AMINO-3,4-DIOXO-1-PHENYLBUTAN-2-YL)-2,3-DIMETHYLBENZAMIDE]	< 3000 nM	< 3000 nM	< 3000 nM	< 10 µM	
NC(=O)C(=O)[C@H](Cc1ccccc1)NC(=O)c1ccccc1Br [Compound 36, (S)—N-(4-AMINO-3,4-DIOXO-1-PHENYLBUTAN-2-YL)-2-BROMOBENZAMIDE]	< 3000 nM	< 3000 nM	< 3000 nM	< 10 µM	
